Experimental data: patent publication US8841348B2, “Anti-inflammatory formulation” (AKL Inflammatory Limited, priority 2005, dated 2014)

Test: Applicant's clinical observation of paeonol and apocynin alone versus together
Type: in vivo
Conditions: used on their own
Text: The applicant has noted that the effect of the combination of paeonol and apocynin together is rather better than would have been expected from studies using either of these alone.

COc1cc(C(C)=O)ccc1O [apocynin, 4-hydroxy-3-methoxyacetophenone]
anti-inflammatory and/or analgesic activity: did not show anti-inflammatory and/or analgesic activity that could be clinically observed

COc1ccc(C(C)=O)c(O)c1 [paeonol, 2-hydroxy-4-methoxy-acetophenone]
anti-inflammatory and/or analgesic activity: did not show anti-inflammatory and/or analgesic activity that could be clinically observed
